# In ChEMBL document CHEMBL5120866, “Design and Synthesis of Novel Celastrol Derivatives as Potential Anticancer Agents against Gastric Cancer Cells” (J Nat Prod, 2022):
# Active and inactive are the calls of the source. The rule behind the calls is not given here.
# Assays:
# [1] = test system: BGC-823; assay: Upregulation of Bcl-2 family proteins in human BGC-823 cells at 0.15 to 0.6 uM incubated for 24 hrs by Western blot analysis; assay type: functional, cell-based; details: dose 0.15-0.6 µM
# [2] = test system: BGC-823; assay: Induction of apoptosis in human BGC-823 cells assessed as late apoptotic cells at 0.3 uM incubated for 24 hrs by annexin-V-FITC and PI staining based flow cytometry analysis (reference value: 0.6%); assay type: functional
# [3] = test system: BGC-823; assay: Induction of cell cycle arrest in human BGC-823 cells assessed as accumulation of cells at G0/G1 phase at 0.6 uM incubated for 24 hrs by PI staining based flow cytometry method (reference value: 50.66%); assay type: functional
# [4] = test system: BGC-823; assay: Induction of cell cycle arrest in human BGC-823 cells assessed as accumulation of cells at S phase at 0.3 uM incubated for 24 hrs by PI staining based flow cytometry method (reference value: 26.01%); assay type: functional
# [5] = test system: BGC-823; assay: Downregulation of Cdc2 protein expression in human BGC-823 cells at 0.15 to 0.6 uM incubated for 24 hrs by Western blot analysis; assay type: functional, cell-based; details: dose 0.15-0.6 µM
# [6] = test system: BGC-823; assay: Induction of apoptosis in human BGC-823 cells assessed as early apoptotic cells at 0.3 uM incubated for 24 hrs by annexin-V-FITC and PI staining based flow cytometry analysis (reference value: 2.4%); assay type: functional
# [7] = test system: BGC-823; assay: Induction of apoptosis in human BGC-823 cells assessed as early apoptotic cells at 0.15 uM incubated for 24 hrs by annexin-V-FITC and PI staining based flow cytometry analysis (reference value: 2.4%); assay type: functional
# [8] = test system: BGC-823; assay: Induction of apoptosis in human BGC-823 cells assessed as late apoptotic cells at 0.6 uM incubated for 24 hrs by annexin-V-FITC and PI staining based flow cytometry analysis (reference value: 0.6%); assay type: functional
# [9] = test system: BGC-823; assay: Induction of cell cycle arrest in human BGC-823 cells assessed as accumulation of cells at G2/M phase at 0.3 uM incubated for 24 hrs by PI staining based flow cytometry method (reference value: 22.86%); assay type: functional
# [10] = test system: HeLa; assay: Antiproliferative activity against human HeLa cells assessed as cell growth inhibition incubated for 48 hrs by MTT assay; assay type: functional, cell-based
# [11] = test system: BGC-823; assay: Induction of mitochondrial dysfunction in human BGC-823 cells assessed as […] by measuring increase in green fluorescence at 0.15 to 0.6 uM incubated for 24 hrs by inverted fluorescent microscopic analysis; assay type: functional, cell-based; details: dose 0.15-0.6 µM
# [12] = test system: MCF7; assay: Antiproliferative activity against human MCF7 cells assessed as cell growth inhibition incubated for 48 hrs by MTT assay; assay type: functional, cell-based; details: MCF7, 48 h
# [13] = test system: BGC-823; assay: Downregulation of cyclin B1 protein expression in human BGC-823 cells at 0.15 to 0.6 uM incubated for 24 hrs by Western blot analysis; assay type: functional, cell-based; details: dose 0.15-0.6 µM
# [14] = Toxicity in athymic BALB/c nude mouse assessed as effect on heart at 1.5 mg/kg, ip measured after 21 days by H and E staining based histopathological analysis; assay type: organism-based; details: in vivo, 504 h, time 21 day
# [15] = test system: BGC-823; assay: Induction of apoptosis in human BGC-823 cells assessed as increase in number of apoptotic cells at 0.15 to 0.6 uM incubated for 24 hrs by Hoechst 33342 staining based flourescence microscopy method; assay type: functional, cell-based; details: dose 0.15-0.6 µM
# [16] = Toxicity in athymic BALB/c nude mouse assessed as change in body weight at 1.5 mg/kg, ip measured every 2 days for 21 days; assay type: organism-based; details: in vivo, 504 h, time 21 day
smiles,measurement,setting,value
CCOC(=O)c1cnn(CCCOC(=O)[C@]2(C)CC[C@]3(C)CC[C@]4(C)C5=CC=C6C(=CC(=O)C(O)=C6C)[C@]5(C)CC[C@@]4(C)[C@@H]3C2)c1,Activity,[1],Active
same,Activity,[2],4.8%
same,Activity,[3],37.39%
same,Activity,[4],23.91%
same,Activity,[5],Active
same,Activity,[6],16.5%
same,Activity,[7],4.4%
same,Activity,[8],21.7%
same,Activity,[9],27.71%
same,IC50,[10],480 nM
same,Activity,[11],Active
same,IC50,[12],390 nM
same,Activity,[13],Active
same,Activity,[14],Non-Toxic
same,Activity,[15],Active
same,Activity,[16],Non-Toxic
